This passage reports IC50 results from US9012642B2, “Pyrrolopyridinone compounds and methods for treating HIV” (ViiV Healthcare UK Limited, priority 2011, dated 2015).

Molecules are shown by their SMILES. Like-named read-outs stand apart in the source and are kept apart here.

This test relates to HIV. Kind of test: HIV MT4 Assay (antiviral HIV activity in MT-4 cells). The class given is cell-based. As to the method:
Antiviral HIV activity and cytotoxicity values for compounds of the invention from Table 1 were measured in parallel in the HTLV-1 transformed cell line MT-4 based on the method previously described (Hazen et al., 2007, In vitro antiviral activity of the novel, tyrosyl-based human immunodeficiency virus (HIV) type 1 protease inhibitor brecanavir (GW640385) in combination with other antiretrovirals and against a panel of protease inhibitor-resistant HIV (Hazen et al., “In vitro antiviral activity of the novel, tyrosyl-based human immunodeficiency virus (HIV) type 1 protease inhibitor brecanavir (GW640385) in combination with other antiretrovirals and against a panel of protease inhibitor-resistant HIV”, Antimicrob. Agents Chemother. 2007, 51: 3147-3154; and Pauwels et al., “Sensitive and rapid assay on MT-4 cells for the detection of antiviral compounds against the AIDS virus”, (J. of Virological Methods 1987, 16: 171-185).
Luciferase activity was measured 96 hours later by adding a cell titer glo (Promega, Madison, Wis.). Percent inhibition of cell protection data was plotted relative to no compound control. Under the same condition, cytotoxicity of the compounds was determined using cell titer Glo™ (Promega, Madison, Wis.). IC50s were determined from a 10 point dose response curve using 3-4-fold serial dilution for each compound, which spans a concentration range >1000 fold.
These values are plotted against the molar compound concentrations using the standard four parameter logistic equation: y=((Vmax*x^n)/(K^n+x^n))+Y^2
Y^2=minimum y n=slope factor
Vmax=maximum y x=compound concentration [M]

[1] abbreviates: Human immunodeficiency virus 1, MT4, HTLV-1 transformed cell line MT-4, luciferase activity measured 96 hours later, Table 3, read-out: HIV MT4 Assay IC50.
Where [2] appears, read: MT4, 96 h, read-out: MT4 (IC50).

For orientation: IC50 means the midpoint of a concentration-inhibition curve.

Take `Cc1c(-c2c(C(OC(C)(C)C)C(=O)O)n(C)c(=O)c3c2ccn3Cc2ccc(F)cc2)ccc2c1CCCO2` (atropisomer, axis not shown; (M)) [Example 41, (S)(M)-2-(tert-butoxy)-2-(1-(4-fluorobenzyl)-6-methyl-4-(5-methylchroman-6-yl)-7-oxo-6,7-dihydro-1H-pyrrolo[2,3-c]pyridin-5-yl)acetic acid]: the IC50 reads like this: under setting [1], 10 nM; under setting [2], 10 nM.
With `COc1ccc(Cn2ccc3c(-c4ccc5c(c4C)CCCO5)c(C(OC(C)(C)C)C(=O)O)n(C)c(=O)c32)cc1` (atropisomer, axis not shown; (M)) [Example 53, (S)(M)-2-(tert-butoxy)-2-(1-(4-methoxybenzyl)-6-methyl-4-(5-methylchroman-6-yl)-7-oxo-6,7-dihydro-1H-pyrrolo[2,3-c]pyridin-5-yl)acetic acid], the IC50 was 10 nM under setting [1] and 10 nM under setting [2].
Take `Cn1c(C(OC(C)(C)C)C(=O)O)c(-c2ccc(Cl)cc2)c2ccn(Cc3ccccc3)c2c1=O` (stereo not shown) [Example 1, 2-(1-benzyl-4-(4-chlorophenyl)-6-methyl-7-oxo-6,7-dihydro-1H-pyrrolo[2,3-c]pyridin-5-yl)-2-(tert-butoxy)acetic acid]: the 50% inhibitory concentration (IC50) reads like this: under setting [1], 220 nM; under setting [2], 220 nM.
For `Cn1c(C(OC(C)(C)C)C(=O)O)c(-c2ccc(Cl)cc2)c2ccn(Cc3ccc(F)cc3)c2c1=O` (stereo not shown) [Example 2, 2-(tert-butoxy)-2-(4-(4-chlorophenyl)-1-(4-fluorobenzyl)-6-methyl-7-oxo-6,7-dihydro-1H-pyrrolo[2,3-c]pyridin-5-yl)acetic acid], the IC50 stood at 160 nM under setting [1] and 160 nM under setting [2].
For the compound `COc1ccc(Cn2ccc3c(-c4ccc(Cl)cc4)c(C(OC(C)(C)C)C(=O)O)n(C)c(=O)c32)cc1` (stereo not shown) [Example 3, 2-(tert-butoxy)-2-(4-(4-chlorophenyl)-1-(4-methoxybenzyl)-6-methyl-7-oxo-6,7-dihydro-1H-pyrrolo[2,3-c]pyridin-5-yl)acetic acid], the IC50 amounted to 460 nM under setting [1] and 460 nM under setting [2].
For `COCCn1ccc2c(-c3ccc(Cl)cc3)c(C(OC(C)(C)C)C(=O)O)n(C)c(=O)c21` (stereo not shown) [Example 4, 2-(tert-butoxy)-2-(4-(4-chlorophenyl)-1-(2-methoxyethyl)-6-methyl-7-oxo-6,7-dihydro-1H-pyrrolo[2,3-c]pyridin-5-yl)acetic acid], the concentration for half-maximal inhibition (IC50) by setting is: under setting [1], 1550 nM; under setting [2], 1550 nM.
`CC(C)Cn1ccc2c(-c3ccc(Cl)cc3)c(C(OC(C)(C)C)C(=O)O)n(C)c(=O)c21` (stereo not shown) [Example 5, 2-(tert-butoxy)-2-(4-(4-chlorophenyl)-1-isobutyl-6-methyl-7-oxo-6,7-dihydro-1H-pyrrolo[2,3-c]pyridin-5-yl)acetic acid]: the IC50 by setting is: under setting [1], 5000 nM; under setting [2], 5000 nM.
`Cn1c([C@H](OC(C)(C)C)C(=O)O)c(-c2ccc(Cl)cc2)c2ccn(Cc3ccc(F)c(F)c3)c2c1=O` [Example 6, (S)-2-(tert-butoxy)-2-(4-(4-chlorophenyl)-1-(3,4-difluorobenzyl)-6-methyl-7-oxo-6,7-dihydro-1H-pyrrolo[2,3-c]pyridin-5-yl)acetic acid]: the IC50 reads like this: under setting [1], 140 nM; under setting [2], 140 nM.
In the case of `Cn1c(C(OC(C)(C)C)C(=O)O)c(-c2ccc(Cl)cc2)c2ccn(CCN3CCCCC3)c2c1=O` (stereo not shown) [Example 7, 2-(tert-butoxy)-2-(4-(4-chlorophenyl)-6-methyl-7-oxo-1-(2-(piperidin-1-yl)ethyl)-6,7-dihydro-1H-pyrrolo[2,3-c]pyridin-5-yl)acetic acid], the IC50 reads like this: under setting [1], 1000 nM; under setting [2], 1000 nM.
Consider `Cn1c(C(OC(C)(C)C)C(=O)O)c(-c2ccc(Cl)cc2)c2ccn(Cc3cc(F)ccc3F)c2c1=O` (stereo not shown) [Example 8, 2-(tert-butoxy)-2-(4-(4-chlorophenyl)-1-(2,5-difluorobenzyl)-6-methyl-7-oxo-6,7-dihydro-1H-pyrrolo[2,3-c]pyridin-5-yl)acetic acid], for which the half-maximal inhibitory concentration (IC50) under setting [1] was 130 nM and the IC50 under setting [2] was found to be 130 nM.
On to `Cn1c(C(OC(C)(C)C)C(=O)O)c(-c2ccc(Cl)cc2)c2ccn(Cc3ccc(C(F)(F)F)o3)c2c1=O` (stereo not shown) [Example 9, 2-(tert-butoxy)-2-(4-(4-chlorophenyl)-6-methyl-7-oxo-1-((5-(trifluoromethyl)furan-2-yl)methyl)-6,7-dihydro-1H-pyrrolo[2,3-c]pyridin-5-yl)acetic acid], for which the IC50 under setting [1] was 1250 nM and the IC50 under setting [2] was 1250 nM.
Regarding `Cn1c(C(OC(C)(C)C)C(=O)O)c(-c2ccc(Cl)cc2)c2ccn(Cc3cn4ccccc4n3)c2c1=O` (stereo not shown) [Example 10, 2-(tert-butoxy)-2-(4-(4-chlorophenyl)-1-(imidazo[1,2-a]pyridin-2-ylmethyl)-6-methyl-7-oxo-6,7-dihydro-1H-pyrrolo[2,3-c]pyridin-5-yl)acetic acid], the half-inhibitory concentration (IC50) is, setting by setting: under setting [1], 3000 nM; under setting [2], 3000 nM.
For the compound `Cc1nc(Cn2ccc3c(-c4ccc(Cl)cc4)c(C(OC(C)(C)C)C(=O)O)n(C)c(=O)c32)cs1` (stereo not shown) [Example 11, 2-(tert-butoxy)-2-(4-(4-chlorophenyl)-6-methyl-1-((2-methylthiazol-4-yl)methyl)-7-oxo-6,7-dihydro-1H-pyrrolo[2,3-c]pyridin-5-yl)acetic acid], the IC50 was determined as 310 nM under setting [1] and 310 nM under setting [2].
With `Cc1ccc(NC(=O)Cn2ccc3c(-c4ccc(Cl)cc4)c(C(OC(C)(C)C)C(=O)O)n(C)c(=O)c32)c(O)c1` (stereo not shown) [Example 12, 2-(tert-butoxy)-2-(4-(4-chlorophenyl)-1-(2-((2-hydroxy-4-methylphenyl)amino)-2-oxoethyl)-6-methyl-7-oxo-6,7-dihydro-1H-pyrrolo[2,3-c]pyridin-5-yl)acetic acid], the IC50 by setting is: under setting [1], 3250 nM; under setting [2], 3250 nM.
As for `CC(c1ccccc1)n1ccc2c(-c3ccc(Cl)cc3)c(C(OC(C)(C)C)C(=O)O)n(C)c(=O)c21` (stereo not shown) [Example 13, 2-(tert-butoxy)-2-(4-(4-chlorophenyl)-6-methyl-7-oxo-1-(1-phenylethyl)-6,7-dihydro-1H-pyrrolo[2,3-c]pyridin-5-yl)acetic acid], the IC50 came to 400 nM under setting [1] and 400 nM under setting [2].
For the compound `Cn1c(C(OC(C)(C)C)C(=O)O)c(-c2ccc(Cl)cc2)c2c(Br)cn(Cc3ccccc3)c2c1=O` (stereo not shown) [Example 14, 2-(1-benzyl-3-bromo-4-(4-chlorophenyl)-6-methyl-7-oxo-6,7-dihydro-1H-pyrrolo[2,3-c]pyridin-5-yl)-2-(tert-butoxy)acetic acid], the 50% inhibitory concentration (IC50) runs as follows: under setting [1], 750 nM; under setting [2], 750 nM.
Take `Cc1cn(Cc2ccccc2)c2c(=O)n(C)c(C(OC(C)(C)C)C(=O)O)c(-c3ccc(Cl)cc3)c12` (stereo not shown) [Example 15, 2-(1-benzyl-4-(4-chlorophenyl)-3,6-dimethyl-7-oxo-6,7-dihydro-1H-pyrrolo[2,3-c]pyridin-5-yl)-2-(tert-butoxy)acetic acid]: the IC50 worked out at 1620 nM under setting [1] and 1620 nM under setting [2].
Regarding `Cn1c(C(OC(C)(C)C)C(=O)O)c(-c2ccc(Cl)cc2)c2ccn(S(=O)(=O)c3ccc(F)cc3)c2c1=O` (stereo not shown) [Example 16, 2-(tert-butoxy)-2-(4-(4-chlorophenyl)-1-((4-fluorophenyl)sulfonyl)-6-methyl-7-oxo-6,7-dihydro-1H-pyrrolo[2,3-c]pyridin-5-yl)acetic acid], the IC50 is, setting by setting: under setting [1], 1800 nM; under setting [2], 1800 nM.
Turning to `Cc1ccc(S(=O)(=O)n2ccc3c(-c4ccc(Cl)cc4)c(C(OC(C)(C)C)C(=O)O)n(C)c(=O)c32)cc1` (stereo not shown) [Example 17, 2-(tert-butoxy)-2-(4-(4-chlorophenyl)-6-methyl-7-oxo-1-tosyl-6,7-dihydro-1H-pyrrolo[2,3-c]pyridin-5-yl)acetic acid], the concentration for half-maximal inhibition (IC50) amounted to 1200 nM under setting [1] and 1200 nM under setting [2].
Turning to `Cn1c(C(OC(C)(C)C)C(=O)O)c(-c2ccc(Cl)cc2)c2ccn(Cc3cn(CCO)nn3)c2c1=O` (stereo not shown) [Example 18, 2-(tert-butoxy)-2-(4-(4-chlorophenyl)-1-((1-(2-hydroxyethyl)-1H-1,2,3-triazol-4-yl)methyl)-6-methyl-7-oxo-6,7-dihydro-1H-pyrrolo[2,3-c]pyridin-5-yl)acetic acid], the IC50 runs as follows: under setting [1], 50000 nM; under setting [2], 50000 nM.
Take `Cc1ccc(-c2c(C(OC(C)(C)C)C(=O)O)n(C)c(=O)c3c2ccn3Cc2ccccc2)cc1` (stereo not shown) [Example 19, 2-(1-benzyl-6-methyl-7-oxo-4-(p-tolyl)-6,7-dihydro-1H-pyrrolo[2,3-c]pyridin-5-yl)-2-(tert-butoxy)acetic acid]: the IC50 under setting [1] was 80 nM and the IC50 under setting [2] was 80 nM.
As for `Cc1ccc(-c2c(C(OC(C)(C)C)C(=O)O)n(C)c(=O)c3c2ccn3Cc2ccc3nonc3c2)cc1` (stereo not shown) [Example 20, 2-(1-(benzo[c][1,2,5]oxadiazol-5-ylmethyl)-6-methyl-7-oxo-4-(p-tolyl)-6,7-dihydro-1H-pyrrolo[2,3-c]pyridin-5-yl)-2-(tert-butoxy)acetic acid], the concentration for half-maximal inhibition (IC50) is, setting by setting: under setting [1], 160 nM; under setting [2], 160 nM.
As to `Cc1ccc(-c2c(C(OC(C)(C)C)C(=O)O)n(C)c(=O)c3c2ccn3Cc2ccc(B(O)O)cc2)cc1` (stereo not shown) [Example 21, 2-(1-(4-boronobenzyl)-6-methyl-7-oxo-4-(p-tolyl)-6,7-dihydro-1H-pyrrolo[2,3-c]pyridin-5-yl)-2-(tert-butoxy)acetic acid], the IC50 under setting [1] came to 2700 nM and the IC50 under setting [2] was determined as 2700 nM.
